We go through two molecules from patent US8210776B2, “Calcification method using calcifying bacteria” (Soletanche Freyssinet, priority 2007, dated 2012).

The subject of assay [1] is Sporosarcina pasteurii—CIP 66.21 Pasteur. Put plainly: Degree of attachment in sand columns, chicory and/or divalent ion salt added before injection (Example 4). The class given is cell-based. To be noted: 10 mM Ca(NO3)2 added to the culture medium; 20° C. As for the experimental part:
The columns were prepared in accordance with Example 3.
The bacteria (Sporosarcina pasteurii—CIP 66.21 Pasteur) were cultured in a culture medium (1 L of laboratory water) containing 10 g of yeast extract, 3 g of NaCl, 2.4 g of urea, 0.1 g of MgCl2 and 0.0128 g of NiCl2. When the bacteria are at the end of the exponential phase, the following are added to the culture medium: • either a source of calcium (10 mM Ca(NO3)2); • or chicory in a proportion of 4 or 8 g/L; • or a source of calcium (10 mM Ca(NO3)2) and chicory in a proportion of 4 or 8 g/L.
The whole was left to stir for one hour before being injected into the columns.
The injection conditions are identical to those of Example 3. All the experiments were carried out at 20° C.
The cumulative column inlet and outlet OD values are compared and expressed in the form of percentage loss of OD, which represents the degree of attachment of the bacteria in the column. FIG. 5 represents the degrees of attachment of the bacteria stimulated by the addition of chicory, of calcium salt or of both to the culture medium before injection.
The protocol is identical to that of Example 4.1, with the calcium ions (Ca(NO3)2) being replaced with magnesium ions (Mg(NO3)2).

Another assay concerns Sporosarcina pasteurii. Put plainly: Culture with inulin/chicory replacing part of the yeast extract: attachment to glassware, growth, enzymatic activity. Format: cell-based. From the text: In order to determine the amount of inulin necessary in order to act on the synthesis of urease and on the production of EPS in Sporosarcina pasteurii, a part of the nitrogenous carbon source (yeast extract) was replaced with chicory.

Assay [2] has as its system S. pasteurii (CIP 66.21 Pasteur). Put plainly: Screening for sugars that can be assimilated, API strips (API 20 E and API 50CH). The following applies: API strip analysis. Format: cell-based, Sporosarcina pasteurii. From the text: The first step was to carry out a screening of the various sugars that exist, in order to identify that or those which is (are) assimilable and which stimulate EPS synthesis in Sporosarcina pasteurii, preferably without inhibiting urease synthesis.
For this, two types of API strips were used: API 20 E and API 50CH. These tests are in the form of microtubes containing dehydrated substrates and which are inoculated with a bacterial suspension.

In assay [3] the test system is Sporosarcina pasteurri—CIP 66.21 Pasteur. Put plainly: Degree of attachment of bacteria to Fontainebleau sand columns, chicory in the culture medium (Example 3). The class given is cell-based, Sporosarcina pasteurii. The following applies: media with versus without chicory. As for the experimental part:
The chicory used is powdered extract of freeze-dried chicory, derived from the root of Cichorium intibus and sold under the trade name “Chicorée soluble Leroux”. For this, two tests were carried out in parallel on columns:
The columns were made up of a PVC tube 63 mm in diameter and 200 mm in height, positioned between two PVC bases. One centimeter of filter sand was placed at the two ends and the whole of the column was made up with Fontainebleau sand tamped down under water by tapping. The Fontainebleau sand is the NE34-grade sand from SIFRACO. The injections were carried out from top to bottom. […]
Monitoring of the OD at the column outlet makes it possible to know the degree of attachment of the bacteria to the Fontainebleau sand. A calibration OD measurement was carried out beforehand on each of the media from which the bacteria were extracted in order to be free of differences in reading related to the medium itself. […]
Since the column porosity volume is 250 mL, the detection of the first bacteria at the column outlet is carried out after having injected 250 mL of culture medium. The graphic representation of the cumulative OD at the column inlet and at the column outlet makes it possible to readily visualize the degree of attachment of the bacteria to the granular substrate. […] The outlet ODs are also measured every minute. […]

Turning to `O=[N+]([O-])[O-].O=[N+]([O-])[O-].[Ca+2]` [Ca(NO3)2], the “Degree of attachment (%)” value in assay [1] was 49.5%.
On to Inulin, for which, in the assay on Sporosarcina pasteurii, the “adhesion of the bacteria to the laboratory glassware through the production of EPS” value is “demonstrated adhesion” and the “growth of the bacteria” value was “more rapid”. Besides, the “carbon source that can be assimilated by Sporosarcina pasteurii” value in assay [2] is on record as “can be assimilated”. Further, the “bacterial growth (inlet OD)” value in assay [3] is “greater”.
